Test results published in paper PMC6709534 (Journal of the American Chemical Society, 2015).

Tested on: H. pylori
Experiment: H. pylori growth on 5% horse blood agar
Assay type: cell-based, Helicobacter pylori
Settings: versus ∼8 ng/mL of the 10 best MTAN inhibitors

| SMILES | fold weaker than the 10 best MTAN inhibitors (IC90 ratio) |
| --- | --- |
| Cc1ncc([N+](=O)[O-])n1CCO [Metronidazole] | 2000 fold |

Tested on: H. pylori
Experiment: not given
Settings: antibiotics used in multidrug therapy and moenomycin A; cited from earlier work

| SMILES | IC90 of current antibiotics against H. pylori |
| --- | --- |
| CC[C@H]1OC(=O)[C@H](C)[C@@H](O[C@H]2C[C@@](C)(OC)[C@@H](O)[C@H](C)O2)[C@H](C)[C@@H](O[C@@H]2O[C@H](C)C[C@H](N(C)C)[C@H]2O)[C@](C)(OC)C[C@@H](C)C(=O)[C@H](C)[C@@H](O)[C@]1(C)O [clarithromycin] | 8000 ng/mL |
| CN(C)[C@@H]1C(O)=C(C(N)=O)C(=O)[C@@]2(O)C(O)=C3C(=O)c4c(O)cccc4[C@@](C)(O)[C@H]3C[C@@H]12 [tetracycline] | 500 ng/mL |
| C=C(C/C=C(\C)CCC=C(C)C)CCC(C)(C)/C=C/CC/C(C)=C\CO[C@H](COP(=O)(O)O[C@H]1O[C@H](C(N)=O)[C@@](C)(O)[C@H](OC(N)=O)[C@H]1O[C@@H]1O[C@H](CO[C@@H]2O[C@H](CO)[C@@H](O)[C@H](O)[C@H]2O)[C@@H](O[C@@H]2O[C@H](C)[C@@H](O[C@@H]3O[C@H](C(=O)NC4=C(O)CCC4=O)[C@H](O)[C@H](O)[C@H]3O)[C@H](O)[C@H]2NC(C)=O)[C@H](O)[C@H]1NC(C)=O)C(=O)O [moenomycin A] | 2000 ng/mL |
| Cc1ncc([N+](=O)[O-])n1CCO [Metronidazole] | 16 000 ng/mL |
| C[C@H]1COc2c(N3CCN(C)CC3)c(F)cc3c(=O)c(C(=O)O)cn1c23 [levofloxacin] | 1000 ng/mL |
